Laboratory results as given in patent US8815847B2, “[1,2,4]thiadiazine 1,1-dioxide compounds for lowering serum uric acid” (Anadys Pharmaceuticals, Inc., priority 2011, dated 2014).

Compound: CS(=O)(=O)Nc1ccc2c(c1)S(=O)(=O)N=C(C1=C(O)[C@@H]3C4CCC(CC4)[C@@H]3N(Cc3ccc(F)cc3)C1=O)N2
- melting point: 203.8 to 205.7 °C
